The term IC50 denotes the point on the concentration scale where inhibition reaches its midpoint. Higher therefore signals a need for much substance.

“And” between values parts separate entries of the source, which are not always exact repeats. Equal entries are not always repeated.

The target of data set [1] is T1, ΔPAS mutant EAG1 channels (deletion of PAS domain residues 2 to 130) (Mus musculus, UniProt Q60603).
T1 construct: expressed in transfected cells; host or cells: Xenopus laevis oocytes injected with cRNA
T1 sequence (Q60603 with tags, fused parts or gaps): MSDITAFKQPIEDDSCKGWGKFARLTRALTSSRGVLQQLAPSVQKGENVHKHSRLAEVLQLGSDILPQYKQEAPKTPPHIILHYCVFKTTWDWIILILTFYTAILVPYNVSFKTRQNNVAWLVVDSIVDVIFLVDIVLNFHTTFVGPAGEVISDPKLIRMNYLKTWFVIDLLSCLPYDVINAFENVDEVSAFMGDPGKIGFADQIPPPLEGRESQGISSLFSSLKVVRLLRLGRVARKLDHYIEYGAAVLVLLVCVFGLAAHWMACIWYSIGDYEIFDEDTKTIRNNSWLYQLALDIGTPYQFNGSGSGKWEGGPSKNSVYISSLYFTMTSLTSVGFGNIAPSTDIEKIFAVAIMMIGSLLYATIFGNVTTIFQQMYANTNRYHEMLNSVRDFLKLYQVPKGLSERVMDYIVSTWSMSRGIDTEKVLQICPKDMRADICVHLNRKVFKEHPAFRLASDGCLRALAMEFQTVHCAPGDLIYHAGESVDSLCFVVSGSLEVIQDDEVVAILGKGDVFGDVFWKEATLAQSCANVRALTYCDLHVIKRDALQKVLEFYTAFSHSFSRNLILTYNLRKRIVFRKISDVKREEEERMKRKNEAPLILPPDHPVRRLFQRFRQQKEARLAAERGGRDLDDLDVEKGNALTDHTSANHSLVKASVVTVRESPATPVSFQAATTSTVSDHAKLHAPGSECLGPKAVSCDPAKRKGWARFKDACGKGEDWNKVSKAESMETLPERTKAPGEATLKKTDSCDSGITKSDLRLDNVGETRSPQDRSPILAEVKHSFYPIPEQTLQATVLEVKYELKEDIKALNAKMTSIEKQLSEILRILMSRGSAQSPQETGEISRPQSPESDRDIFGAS
The data set can be described thus: TEVC recording, imipramine inhibition, ΔPAS mutant. The data set is classed as cell-based. To be noted: ΔPAS mutant EAG1 channel, +50 mV. An excerpt: (§1) The cDNA encoding wild-type (WT) mouse EAG1 channels in pGH19 vector was kindly provided by G. Robertson (University of Wisconsin-Madison, Madison, WI). The mutant ΔPAS EAG1 channel in pGH19 with the deletion of the PAS domain residues 2 to 130 was generated by Bio Basic Inc and verified by DNA sequencing (Genewiz). Mutant EAG1 channels with single amino acid substitutions were generated by Genewiz and verified by DNA sequencing. cRNA was transcribed using the T7 mMessage mMachine kit (Thermo Fisher Scientific). Defolliculated Xenopus laevis oocytes were purchased from Ecocyte Bioscience or Xenopus1 and injected with the cRNA using a Nanoinject II oocyte injector (Drummond).
(§2) For EAG1 current recordings, oocytes were placed into a handmade chamber containing a bath solution for the current recording. The currents were recorded using a TEVC technique with OC-725C amplifier (Warner Instruments) and pClamp11 software (Molecular Devices). The signals were digitized using Digidata 1550 (Molecular Devices). Patch pipettes were pulled from borosilicate glass and had resistances of 0.7 to 1.5 MΩ. The recording (bath) solution contained 96 mM NaCl, 4 mM KCl, 0.1 mM CaCl2, 1.8 mM MgCl2, and 5 mM HEPES, pH 7.5. The pipette solution contained 3 M KCl. […]

Data set [2] addresses T2, D39G mutant EAG1 channels (Mus musculus, UniProt Q60603, D39G).
T2 construct: expressed in transfected cells; host or cells: Xenopus laevis oocytes injected with cRNA
T2 sequence (Q60603 1-989 D39G): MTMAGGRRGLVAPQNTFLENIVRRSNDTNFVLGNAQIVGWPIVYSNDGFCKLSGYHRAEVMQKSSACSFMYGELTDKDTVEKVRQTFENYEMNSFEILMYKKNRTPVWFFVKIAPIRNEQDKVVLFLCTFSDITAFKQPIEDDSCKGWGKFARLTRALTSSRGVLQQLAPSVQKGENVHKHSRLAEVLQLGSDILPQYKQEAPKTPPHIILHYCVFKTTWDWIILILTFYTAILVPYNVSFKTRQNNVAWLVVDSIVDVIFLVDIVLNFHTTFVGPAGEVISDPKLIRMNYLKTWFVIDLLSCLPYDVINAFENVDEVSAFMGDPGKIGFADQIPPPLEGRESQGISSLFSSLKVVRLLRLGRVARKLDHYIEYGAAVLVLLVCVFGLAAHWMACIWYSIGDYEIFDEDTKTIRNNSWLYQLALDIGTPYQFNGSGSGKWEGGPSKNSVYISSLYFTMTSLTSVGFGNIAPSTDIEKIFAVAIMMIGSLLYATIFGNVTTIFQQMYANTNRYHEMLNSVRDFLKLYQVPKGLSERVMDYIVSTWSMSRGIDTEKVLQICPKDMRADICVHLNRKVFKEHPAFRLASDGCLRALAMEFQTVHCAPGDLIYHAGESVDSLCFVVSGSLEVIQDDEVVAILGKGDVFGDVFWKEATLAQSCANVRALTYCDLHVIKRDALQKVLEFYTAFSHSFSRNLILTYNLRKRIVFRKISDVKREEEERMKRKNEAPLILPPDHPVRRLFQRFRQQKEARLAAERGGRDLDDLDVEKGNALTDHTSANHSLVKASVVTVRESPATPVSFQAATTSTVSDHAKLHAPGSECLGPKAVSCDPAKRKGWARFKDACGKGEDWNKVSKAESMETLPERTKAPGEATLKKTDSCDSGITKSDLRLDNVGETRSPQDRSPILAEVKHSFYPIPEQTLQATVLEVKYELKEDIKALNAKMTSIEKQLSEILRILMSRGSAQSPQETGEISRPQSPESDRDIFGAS
The data set can be described thus: TEVC recording, imipramine inhibition, D39G mutant. The data set is classed as cell-based. The settings on record: D39G mutant EAG1 channel, +50 mV.
From the text: as §1, §2

For data set [3] the following is noted: can reach up; cited from earlier work.

For the compound `CN(C)CCCN1c2ccccc2CCc2ccccc21` [imipramine], the IC50 in data set [1] came to 109 ± 12.6 µM; in data set [2], 79.6 ± 5.4 µM. Further, in data set [3], the “Plasma levels of imipramine observed in patients” value was ≤ 300 ng/ml and ≤ 1 μM.

Source of the values: publication PMC10687071 (The Journal of Biological Chemistry, 2023).
